What was measured:
[1] = test system: TRZAWR (Wheat, Winter, cv Riband); assay: Postemergence herbicidal evaluation; assay type: in vivo, Triticum aestivum; settings: postemergence
In short: (§1)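 Seedlings grown about two weeks in flats, sprayed, then kept under standard greenhouse care. Rated visually 4–5 weeks after treatment on a 0–9 scale (stand, vigour, malformation, size, chlorosis, overall appearance) relative to untreated control; repeat tests averaged.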

[2] = test system: ABUTH (Abutilon theophrasti); assay: Preemergence herbicidal evaluation; assay type: in vivo, Medic.; settings: preemergence, rated 4-5 weeks after treatment
[3] = test system: MOOVA (Monochoria vaginalis); assay: Flooded paddy, preemergence weed control; assay type: in vivo, Presl.; settings: rated 3-4 weeks after treatment, 0-9 rating scale
In short: (§2)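 Scoring used a 0-9 visual scale relative to control. Before that, seeds or propagules were planted shallowly in silt loam and flooded to 1.5–3 cm, a depth maintained throughout, with greenhouse care during the test.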

[4] = test system: ECHORC (Echinochloa oryzoides); assay: Flooded paddy, preemergence weed control; assay type: in vivo, Echinochloa oryzoides (Ard.) Fritsch.; settings: rated 3-4 weeks after treatment, 0-9 rating scale
In short: as §2

[5] = test system: ZEAMX (Corn, Field); assay: Preemergence herbicidal evaluation; assay type: in vivo, Zea mays, L.; settings: preemergence, rated 4-5 weeks after treatment
[6] = test system: CYPIR (Cyperus iria); assay: Flooded paddy, preemergence weed control; assay type: in vivo; settings: rated 3-4 weeks after treatment, 0-9 rating scale
In short: as §2

[7] = test system: IPOHE (Ipomoea hederacea); assay: Preemergence herbicidal evaluation; assay type: in vivo, (L.) Jacq.; settings: preemergence, rated 4-5 weeks after treatment
[8] = test system: AMBEL (Ambrosia artemisifolia); assay: Preemergence herbicidal evaluation; assay type: in vivo, L.; settings: preemergence, rated 4-5 weeks after treatment
In short: (§3)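 Visual 0–9 rating versus control (stand, vigor, malformation, size, chlorosis, overall appearance), scored four to five weeks post-treatment. Preemergence spray of aqueous acetone solution onto freshly seeded soil cups; plants grown under conventional greenhouse care.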

[9] = test system: CASOB (Cassia obtusifolia); assay: Preemergence herbicidal evaluation; assay type: in vivo, L.; settings: preemergence, rated 4-5 weeks after treatment
In short: as §3

[10] = test system: CHEAL (Chenopodium album); assay: Preemergence herbicidal evaluation; assay type: in vivo, L.; settings: preemergence, rated 4-5 weeks after treatment
In short: as §3

[11] = test system: SETVI (Setaria viridis); assay: Postemergence herbicidal evaluation; assay type: in vivo, (L.) Beau; settings: postemergence
In short: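 ~2-wk seedlings; spray 0.0040–1.000 kg/ha in 50/50 acetone/water + 0.5% TWEEN 20, 40 psi nozzle. Greenhouse hold; visual 0–9 rating vs control at 4–5 wk; multiple tests averaged.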

[12] = test system: ECHCG (Echinochloa crus-galli); assay: Postemergence herbicidal evaluation; assay type: in vivo, (L.) Beau; settings: postemergence
In short: as §1

[13] = test system: GLXMAW (Soybean, Williams); assay: Preemergence herbicidal evaluation; assay type: in vivo, Glycine max, (L.) Merr. cv Williams; settings: preemergence, rated 4-5 weeks after treatment
[14] = test system: ORYSAT (Rice, Tebonnet); assay: Flooded paddy, post-transplant rice tolerance; assay type: in vivo, Oryza sativa, (L.) Tebonnet; settings: flooded paddy, post-transplant rice, rated 3-4 weeks after treatment, 0-9 rating scale
In short: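 Visual 0-9 rating against a control, covering stand, vigor, malformation, size, chlorosis and overall appearance. Treatment was applied after transplanting paired ten-day-old seedlings into flooded silt loam, with water kept 1.5 to 3 cm deep on greenhouse benches.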

[15] = test system: SAGPY (Sagittaria pygmaea); assay: Flooded paddy, preemergence weed control; assay type: in vivo, L.; settings: rated 3-4 weeks after treatment, 0-9 rating scale
In short: as §2

**Q.** What does the source list for `CSCC1COC(c2nsc3ccc(-n4c(=O)cc(C(F)(F)F)n(C)c4=O)cc23)O1` (centres unmarked) [Compound 84, 1-methyl-3-[3-[4-[(methylthio)methyl]-1,3-dioxolan-2-yl]-1,2-benzisothiazol-5-yl]-6-(trifluoromethyl)uracil]?
**A.** TRZAWR herbicidal rating ([1]; rate 0.0320 kg/ha): 4.8; TRZAWR herbicidal rating ([1]; rate 0.0620 kg/ha): 6.3; TRZAWR herbicidal rating ([1]; rate 0.1250 kg/ha): 9.0; Preemergence herbicidal rating ABUTH ([2]; rate 0.0620 kg/ha): 9.0; Preemergence herbicidal rating ABUTH ([2]; rate 0.1250 kg/ha): 9.0; Preemergence herbicidal rating ABUTH ([2]; rate 0.2500 kg/ha): 9.0; herbicidal rating, MOOVA ([3]; rate 0.0080 kg/ha): 9.0; herbicidal rating, MOOVA ([3]; rate 0.0320 kg/ha): 9.0; herbicidal rating, MOOVA ([3]; rate 0.1250 kg/ha): 9.0; herbicidal rating, ECHORC ([4]; rate 0.0080 kg/ha): 0.0; herbicidal rating, ECHORC ([4]; rate 0.0320 kg/ha): 7.5; herbicidal rating, ECHORC ([4]; rate 0.1250 kg/ha): 8.0; Preemergence herbicidal rating ZEAMX ([5]; rate 0.0620 kg/ha): 3.7; Preemergence herbicidal rating ZEAMX ([5]; rate 0.1250 kg/ha): 6.3; Preemergence herbicidal rating ZEAMX ([5]; rate 0.2500 kg/ha): 8.0; herbicidal rating, CYPIR ([6]; rate 0.0080 kg/ha): 0.0; herbicidal rating, CYPIR ([6]; rate 0.0320 kg/ha): 1.5; herbicidal rating, CYPIR ([6]; rate 0.1250 kg/ha): 6.0; Preemergence herbicidal rating IPOHE ([7]; rate 0.0620 kg/ha): 6.3; Preemergence herbicidal rating IPOHE ([7]; rate 0.1250 kg/ha): 8.3; Preemergence herbicidal rating IPOHE ([7]; rate 0.2500 kg/ha): 9.0; Preemergence herbicidal rating AMBEL ([8]; rate 0.0620 kg/ha): 9.0; Preemergence herbicidal rating AMBEL ([8]; rate 0.1250 kg/ha): 9.0; Preemergence herbicidal rating AMBEL ([8]; rate 0.2500 kg/ha): 9.0; Preemergence herbicidal rating CASOB ([9]; rate 0.0620 kg/ha): 4.0; Preemergence herbicidal rating CASOB ([9]; rate 0.1250 kg/ha): 8.0; Preemergence herbicidal rating CASOB ([9]; rate 0.2500 kg/ha): 9.0; Preemergence herbicidal rating CHEAL ([10]; rate 0.0620 kg/ha): 9.0; Preemergence herbicidal rating CHEAL ([10]; rate 0.1250 kg/ha): 9.0; Preemergence herbicidal rating CHEAL ([10]; rate 0.2500 kg/ha): 9.0; SETVI herbicidal rating ([11]; rate 0.0320 kg/ha): 6.0; SETVI herbicidal rating ([11]; rate 0.0620 kg/ha): 9.0; ECHCG herbicidal rating ([12]; rate 0.0320 kg/ha): 4.5; ECHCG herbicidal rating ([12]; rate 0.0620 kg/ha): 6.5; ECHCG herbicidal rating ([12]; rate 0.1250 kg/ha): 9.0; Preemergence herbicidal rating GLXMAW ([13]; rate 0.0620 kg/ha): 7.0; Preemergence herbicidal rating GLXMAW ([13]; rate 0.1250 kg/ha): 9.0; Preemergence herbicidal rating GLXMAW ([13]; rate 0.2500 kg/ha): 9.0; herbicidal rating, ORYSAT (rice tolerance) ([14]; rate 0.0080 kg/ha): 0.0; herbicidal rating, ORYSAT (rice tolerance) ([14]; rate 0.0320 kg/ha): 1.5; herbicidal rating, ORYSAT (rice tolerance) ([14]; rate 0.1250 kg/ha): 5.5; herbicidal rating, SAGPY ([15]; rate 0.0080 kg/ha): 0.0; herbicidal rating, SAGPY ([15]; rate 0.0320 kg/ha): 0.0; herbicidal rating, SAGPY ([15]; rate 0.1250 kg/ha): 4.0

**Q.** How did the TRZAWR herbicidal rating ([1]; rate 0.0320 kg/ha) turn out when `Cn1c(C(F)(F)F)cc(=O)n(-c2ccc3snc(-c4sccc4CO)c3c2)c1=O` [Compound 85, 3-[3-[3-(hydroxymethyl)-2-thienyl]-1,2-benzisothiazol-5-yl]-1-methyl-6-(trifluoromethyl)uracil] was run?
**A.** 2.0

**Q.** What about the TRZAWR herbicidal rating ([1]; rate 0.0620 kg/ha) of the same compound?
**A.** 3.5

**Q.** And the “Preemergence herbicidal rating ABUTH” value ([2]; rate 0.0620 kg/ha)?
**A.** 9.0

**Q.** And the “Preemergence herbicidal rating ABUTH” value ([2]; rate 0.1250 kg/ha)?
**A.** 9.0

**Q.** What about the “Preemergence herbicidal rating ABUTH” value ([2]; rate 0.2500 kg/ha) of the same compound?
**A.** 9.0

**Q.** And the MOOVA herbicidal rating ([3]; rate 0.0080 kg/ha)?
**A.** 9.0

**Q.** What about the MOOVA herbicidal rating ([3]; rate 0.0320 kg/ha) of the same compound?
**A.** 7.0

**Q.** What about the “herbicidal rating, MOOVA” value ([3]; rate 0.1250 kg/ha) of the same compound?
**A.** 9.0

**Q.** What about the ECHORC herbicidal rating ([4]; rate 0.0080 kg/ha) of the same compound?
**A.** 0.0

**Q.** And the ECHORC herbicidal rating ([4]; rate 0.0320 kg/ha)?
**A.** 5.0

**Q.** And the “herbicidal rating, ECHORC” value ([4]; rate 0.1250 kg/ha)?
**A.** 8.0

**Q.** And the “Preemergence herbicidal rating ZEAMX” value ([5]; rate 0.0620 kg/ha)?
**A.** 0.0

**Q.** And the “Preemergence herbicidal rating ZEAMX” value ([5]; rate 0.1250 kg/ha)?
**A.** 3.0

**Q.** And the “Preemergence herbicidal rating ZEAMX” value ([5]; rate 0.2500 kg/ha)?
**A.** 3.0

**Q.** And the CYPIR herbicidal rating ([6]; rate 0.0080 kg/ha)?
**A.** 0.0

**Q.** And the CYPIR herbicidal rating ([6]; rate 0.0320 kg/ha)?
**A.** 0.0

**Q.** What about the “herbicidal rating, CYPIR” value ([6]; rate 0.1250 kg/ha) of the same compound?
**A.** 6.0

**Q.** What about the “Preemergence herbicidal rating IPOHE” value ([7]; rate 0.0620 kg/ha) of the same compound?
**A.** 0.0

**Q.** And the “Preemergence herbicidal rating IPOHE” value ([7]; rate 0.1250 kg/ha)?
**A.** 4.0

**Q.** What about the “Preemergence herbicidal rating IPOHE” value ([7]; rate 0.2500 kg/ha) of the same compound?
**A.** 7.0

**Q.** What about the “Preemergence herbicidal rating AMBEL” value ([8]; rate 0.0620 kg/ha) of the same compound?
**A.** 8.0

**Q.** And the “Preemergence herbicidal rating AMBEL” value ([8]; rate 0.1250 kg/ha)?
**A.** 9.0

**Q.** And the “Preemergence herbicidal rating AMBEL” value ([8]; rate 0.2500 kg/ha)?
**A.** 9.0

**Q.** And the “Preemergence herbicidal rating CASOB” value ([9]; rate 0.0620 kg/ha)?
**A.** 0.0

**Q.** What about the “Preemergence herbicidal rating CASOB” value ([9]; rate 0.1250 kg/ha) of the same compound?
**A.** 3.0

**Q.** What about the “Preemergence herbicidal rating CASOB” value ([9]; rate 0.2500 kg/ha) of the same compound?
**A.** 5.0

**Q.** What about the “Preemergence herbicidal rating CHEAL” value ([10]; rate 0.0620 kg/ha) of the same compound?
**A.** 9.0

**Q.** What about the “Preemergence herbicidal rating CHEAL” value ([10]; rate 0.1250 kg/ha) of the same compound?
**A.** 9.0

**Q.** What about the “Preemergence herbicidal rating CHEAL” value ([10]; rate 0.2500 kg/ha) of the same compound?
**A.** 9.0

**Q.** What about the SETVI herbicidal rating ([11]; rate 0.0320 kg/ha) of the same compound?
**A.** 5.0

**Q.** And the SETVI herbicidal rating ([11]; rate 0.0620 kg/ha)?
**A.** 9.0

**Q.** And the ECHCG herbicidal rating ([12]; rate 0.0320 kg/ha)?
**A.** 0.0

**Q.** What about the ECHCG herbicidal rating ([12]; rate 0.0620 kg/ha) of the same compound?
**A.** 2.0

**Q.** What about the “Preemergence herbicidal rating GLXMAW” value ([13]; rate 0.0620 kg/ha) of the same compound?
**A.** 0.0

**Q.** What about the “Preemergence herbicidal rating GLXMAW” value ([13]; rate 0.1250 kg/ha) of the same compound?
**A.** 3.0

**Q.** What about the “Preemergence herbicidal rating GLXMAW” value ([13]; rate 0.2500 kg/ha) of the same compound?
**A.** 9.0

**Q.** What about the “ORYSAT herbicidal rating (transplanted rice tolerance)” value ([14]; rate 0.0080 kg/ha) of the same compound?
**A.** 0.0

**Q.** What about the “ORYSAT herbicidal rating (transplanted rice tolerance)” value ([14]; rate 0.0320 kg/ha) of the same compound?
**A.** 1.5

**Q.** What about the “herbicidal rating, ORYSAT (rice tolerance)” value ([14]; rate 0.1250 kg/ha) of the same compound?
**A.** 5.5

**Q.** And the SAGPY herbicidal rating ([15]; rate 0.0080 kg/ha)?
**A.** 0.0

**Q.** What about the SAGPY herbicidal rating ([15]; rate 0.0320 kg/ha) of the same compound?
**A.** 1.5

**Q.** And the “herbicidal rating, SAGPY” value ([15]; rate 0.1250 kg/ha)?
**A.** 7.0

Source: patent US6706663B2, “Herbicidal 3-heterocyclic substituted benzisothiazole and benzisoxazole compounds” (Wyeth, priority 2000, dated 2004)
